Assay results published in paper PMC6115456, “PI3Ka-Akt1-mediated Prdm4 induction in adipose tissue increases energy expenditure, inhibits weight gain, and improves insulin resistance in diet-induced obese mice” (Cell Death & Disease, 2018).

Target: T1, PI3Kα (class I catalytic subunit p110α) (Homo sapiens, UniProt P42336)
T1 construct: gene PIK3CA
Assay: PI3K ADP-Glo kinase assay (Promega) on purified PI3Kα; also […] inhibition at […] in a recombinant kinase panel
Format: biochemical

T1 sequence (P42336 whole entry): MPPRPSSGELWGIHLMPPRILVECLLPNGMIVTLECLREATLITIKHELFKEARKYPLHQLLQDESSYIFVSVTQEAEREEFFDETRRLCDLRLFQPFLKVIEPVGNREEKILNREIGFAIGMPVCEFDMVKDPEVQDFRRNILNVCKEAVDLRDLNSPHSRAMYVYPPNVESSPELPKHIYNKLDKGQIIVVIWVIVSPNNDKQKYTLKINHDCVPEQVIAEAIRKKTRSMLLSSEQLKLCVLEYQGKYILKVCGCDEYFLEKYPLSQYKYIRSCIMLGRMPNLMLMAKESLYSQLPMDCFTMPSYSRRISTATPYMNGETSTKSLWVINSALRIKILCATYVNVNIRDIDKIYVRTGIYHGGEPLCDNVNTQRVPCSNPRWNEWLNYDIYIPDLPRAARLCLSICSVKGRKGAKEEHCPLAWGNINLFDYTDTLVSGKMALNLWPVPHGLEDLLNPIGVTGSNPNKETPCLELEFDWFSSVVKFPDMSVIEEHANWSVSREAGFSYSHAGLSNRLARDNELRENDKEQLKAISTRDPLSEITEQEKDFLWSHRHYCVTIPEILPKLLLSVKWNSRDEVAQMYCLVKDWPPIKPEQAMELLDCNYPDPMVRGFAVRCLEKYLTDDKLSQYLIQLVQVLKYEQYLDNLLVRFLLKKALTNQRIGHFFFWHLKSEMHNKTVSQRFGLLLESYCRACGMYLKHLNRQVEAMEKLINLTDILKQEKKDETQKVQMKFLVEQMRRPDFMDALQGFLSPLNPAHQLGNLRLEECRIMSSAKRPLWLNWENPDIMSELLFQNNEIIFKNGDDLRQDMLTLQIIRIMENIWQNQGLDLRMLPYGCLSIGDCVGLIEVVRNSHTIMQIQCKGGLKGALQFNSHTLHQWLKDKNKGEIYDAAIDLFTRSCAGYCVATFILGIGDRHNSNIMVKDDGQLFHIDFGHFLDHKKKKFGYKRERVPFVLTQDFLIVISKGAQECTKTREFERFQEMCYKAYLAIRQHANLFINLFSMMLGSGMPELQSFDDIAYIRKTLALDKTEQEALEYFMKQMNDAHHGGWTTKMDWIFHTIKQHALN
T1 sequence (P27986 2-724 partner): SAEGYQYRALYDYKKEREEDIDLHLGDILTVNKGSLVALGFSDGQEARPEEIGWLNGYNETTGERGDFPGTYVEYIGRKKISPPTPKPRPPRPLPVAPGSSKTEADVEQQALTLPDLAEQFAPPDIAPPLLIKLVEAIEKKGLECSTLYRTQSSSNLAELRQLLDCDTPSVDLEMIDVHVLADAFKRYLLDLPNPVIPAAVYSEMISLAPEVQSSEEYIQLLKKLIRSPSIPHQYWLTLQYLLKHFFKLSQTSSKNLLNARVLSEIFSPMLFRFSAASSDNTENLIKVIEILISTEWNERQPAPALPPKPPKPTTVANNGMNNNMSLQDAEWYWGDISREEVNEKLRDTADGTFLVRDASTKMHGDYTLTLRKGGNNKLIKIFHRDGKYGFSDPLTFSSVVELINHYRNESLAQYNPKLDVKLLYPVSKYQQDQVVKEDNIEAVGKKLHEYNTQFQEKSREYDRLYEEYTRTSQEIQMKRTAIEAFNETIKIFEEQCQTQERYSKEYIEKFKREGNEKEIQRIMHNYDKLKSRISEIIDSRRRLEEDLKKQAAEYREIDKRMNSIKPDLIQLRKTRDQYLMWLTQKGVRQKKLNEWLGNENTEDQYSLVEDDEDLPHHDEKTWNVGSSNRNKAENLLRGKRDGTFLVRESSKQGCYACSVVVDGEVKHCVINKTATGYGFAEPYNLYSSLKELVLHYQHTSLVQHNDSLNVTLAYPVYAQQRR

O=C(/C=C/c1ccc(O)c(O)c1)c1ccc(O)cc1O [butein]
IC50: 6.4 µM
